Structures can show the parent of a compound that is named as a salt. Where two headings read alike, the source gives them in different places.
What was measured:
[1] = target: recombinant human SOS1 polypeptide (amino acids 560-1049) (Homo sapiens (Human), UniProt Q07889); experiment: biochemical; format: binding; conditions: read-out: Ki, Inhibition of Labeled Tracer Binding to SOS1
pERK in MKN1 cells = experiment: cells; format: cell-based; conditions: Homo sapiens
Procedure: The cells were incubated for approximately 0.5-1 hour with the compounds solubilized in DMSO at 37° C. Cells were immediately fixed by adding 50 μL of 4% formaldehyde to all wells in a fume hood and the plates were incubated for 20 minutes at room temperature. The formaldehyde was discarded from the plates and 150 μL of ice-cold methanol was added to permeabilize the cells for 10 minutes at −20° C. The methanol was discarded from each of the plates and any liquid remaining in the plate by tapping the plate against paper towels. […] The plates were incubated overnight at 4° C. on a shaker.
On Assay day 2, the primary antibody solution was removed. […] The secondary antibody solution as removed and each plate was washed with PBST 3× times. Any liquid remaining was discarded and the plate was imaged using the Licor Odyssey machine according to the manufacturer's instruction, using a set focus length at 3 mm and both 800 nm and 700 nm filters. The GAPDH normalized scan values for each well were divided by the average of vehicle wells to get the % of pERK inhibition. The IC50 values were then calculated with the Graph pad Prism software.

[2] = HTRF displacement, Cy5 labelled tracer, Morrison equation for competitive binding
[3] = MKN-1, pERK inhibition, In-Cell Western, MKN1 or H358 cells (Table 24 does not say which), 0.5-1 hour incubation, read-out: IC50

recombinant human SOS1 polypeptide (amino acids 560-1049), sequence (Q07889 560-1049): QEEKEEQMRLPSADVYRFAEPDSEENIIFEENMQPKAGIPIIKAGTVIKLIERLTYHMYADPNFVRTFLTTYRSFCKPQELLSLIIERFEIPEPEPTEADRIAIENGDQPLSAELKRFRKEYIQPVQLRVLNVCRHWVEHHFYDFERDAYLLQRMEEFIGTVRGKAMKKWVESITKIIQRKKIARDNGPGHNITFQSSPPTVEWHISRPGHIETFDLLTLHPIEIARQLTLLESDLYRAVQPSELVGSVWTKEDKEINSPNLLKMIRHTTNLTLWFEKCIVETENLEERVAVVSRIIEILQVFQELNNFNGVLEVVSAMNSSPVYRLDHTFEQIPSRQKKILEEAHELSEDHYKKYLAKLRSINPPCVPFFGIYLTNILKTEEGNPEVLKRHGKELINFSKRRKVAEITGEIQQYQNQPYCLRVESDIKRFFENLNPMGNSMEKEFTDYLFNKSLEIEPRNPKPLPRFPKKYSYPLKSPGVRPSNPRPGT

SMILES | Ki [1, 2] | IC50 (pERK in MKN1 cells; [3]) | Ki [1] | IC50 (pERK in MKN1 cells; MKN-1)
Cc1nnc(N[C@H](C)c2cc(N)cc(C(F)(F)F)n2)c2cc(N3C[C@H]4C[C@@H]3CO4)ccc12 [Example 16-8, N-((R)-1-(4-amino-6-(trifluoromethyl)pyridin-2-yl)ethyl)-7-((1R, 4R)-2-oxa-5-azabicyclo[2.2.1]heptan-5-yl)-4-methylphthalazin-1-amine] | 21.2 nM | 93 nM | – | –
Cc1nnc(N[C@H](C)c2cccc(C(F)(F)F)c2F)c2cc(N3C[C@H]4CC[C@@H]3CN4C)ncc12 [Example 12-60] | 0.25 nM | 24 nM | – | –
Cc1c([C@@H](C)Nc2nnc(C)c3cnc(N4C[C@H]5C[C@@H]4CO5)cc23)cccc1C(F)(F)F [Example 12-9] | 0.47 nM | 10 nM | – | –
Cc1c(C#N)cccc1[C@@H](C)Nc1nnc(C)c2cnc(N3CC(N(C)C)C3)cc12 [Example 12-54] | 5.37 nM | 45 nM | – | –
COC1(C)CN(c2cc3c(N[C@H](C)c4cccc(C#N)c4C)nnc(C)c3cn2)C1 [Example 12-55] | 3.1 nM | 59 nM | – | –
Cc1c([C@@H](C)Nc2nnc(C)c3cnc(N4CC5(CCNC5=O)C4)cc23)cccc1C(F)(F)F [Example 12-32] | 0.97 nM | 18 nM | – | –
Cc1c(C#N)cccc1[C@@H](C)Nc1nnc(C)c2cnc(N3CCC(C)(N(C)C)CC3)cc12 [Example 12-46] | 0.92 nM | 37 nM | – | –
Cc1c([C@@H](C)Nc2nnc(C)c3ccc(N4C[C@@H]5CC[C@H]4CN5C)cc23)cccc1C(F)(F)F [Example 10-31, 4-methyl-N-((R)-1-(2-methyl-3-(trifluoromethyl)phenyl)ethyl)-7-((1S,4S)-5-methyl-2,5-diazabicyclo[2.2.2]octan-2-yl)phthalazin-1-amine] | 0.35 nM | 3580 nM | – | –
Cc1nnc(N[C@H](C)c2cccc(F)c2Cl)c2cc(N3CC(C)(N(C)C)C3)ncc12 [Example 12-85] | 27.6 nM | 602 nM | – | –
Cc1nnc(N[C@H](C)c2cc(N)cc(C(F)(F)F)c2)c2cc(O[C@H]3CCOC3)ccc12 [Example 15-1, N—((R)-1-(3-amino-5-(trifluoromethyl)phenyl)ethyl)-4-methyl-7-(((S)-tetrahydrofuran-3-yl)oxy)phthalazin-1-amine] | 3.37 nM | 28 nM | – | –
Cc1nnc(N[C@H](C)c2cccc(C(F)(F)C(C)(C)O)c2F)c2cc(N3CCN4CCOC[C@@H]4C3)ncc12 [Example 20-2, 1,1-difluoro-1-(2-fluoro-3-((R)-1-((7-((S)-hexahydropyrazino[2,1-c][1,4]oxazin-8(1H)-yl)-4-methylpyrido[3,4-d]pyridazin-1-yl)amino)ethyl)phenyl)-2-methylpropan-2-ol] | 0.75 nM | 8 nM | – | –
Cc1c(C#N)cccc1[C@@H](C)Nc1nnc(C)c2cnc(N3C[C@H]4C[C@@H]3CO4)cc12 [Example 12-24] | 1.24 nM | 38 nM | – | –
Cc1nnc(N[C@H](C)c2cc(F)cc(C#N)c2)c2cc(N3CCOCC3)ncc12 [Example 6-17, (R)-3-fluoro-5-(1-((4-methyl-7-morpholinopyrido[3,4-d]pyridazin-1-yl)amino)ethyl)benzonitrile] | 56.5 nM | 412 nM | – | –
Cc1c([C@@H](C)Nc2nncc3ccc(N4CCn5ncnc5C4)cc23)cccc1C(F)(F)F [Example 1-25, (R)-7-(5,6-dihydro-[1,2,4]triazolo[1,5-a]pyrazin-7(8H)-yl)-N-(1-(2-methyl-3-(trifluoromethyl)phenyl)ethyl)phthalazin-1-amine] | 0.95 nM | 47 nM | – | –
Cc1nnc(N[C@H](C)c2cccc(C(F)(F)F)c2F)c2cc(N3CC(C)(N(C)C)C3)ccc12 [Example 10-78, (R)-7-(3-(dimethylamino)-3-methylazetidin-1-yl)-N-(1-(2-fluoro-3-(trifluoromethyl)phenyl)ethyl)-4-methylphthalazin-1-amine] | 1.16 nM | 114 nM | – | –
CCN1CCN(c2cc3c(N[C@H](C)c4cccc(C#N)c4C)nnc(C)c3cn2)CC1 [Example 12-52] | 1.06 nM | 60 nM | – | –
Cc1c(C#N)cccc1[C@@H](C)Nc1nnc(C)c2cnc(N(C)C)cc12 [Example 12-45] | 3.78 nM | 250 nM | – | –
Cc1cc([C@@H](C)Nc2nnc(C)c3ccc(N4CCOCC4)cc23)cc(C(F)(F)F)c1 [Example 10-61, (R)-4-methyl-N-(1-(3-methyl-5-(trifluoromethyl)phenyl)ethyl)-7-morpholinophthalazin-1-amine] | 1.61 nM | 57 nM | – | –
Cc1c(C#N)cccc1[C@@H](C)Nc1nnc(C)c2ccc(O[C@H]3CCOC3)cc12 [Example 13-3] | 12.2 nM | 195 nM | – | –

SMILES | Ki [1, 2] | IC50 (pERK in MKN1 cells; [3]) | Ki [1] | IC50 (pERK in MKN1 cells; MKN-1)
Cc1nnc(N[C@H](C)c2cccc(F)c2F)c2cc(N3CC(C)(N(C)C)C3)ncc12 [Example 12-83] | 50.6 nM | 749 nM | – | –
Cc1cc(F)ccc1[C@@H](C)Nc1nnc(C)c2cnc(N3CC(C)(N(C)C)C3)cc12 [Example 12-124] | 64.5 nM | 856 nM | – | –
Cc1c(C#N)cccc1[C@@H](C)Nc1nnc(C)c2cnc(N3CCN(C(=O)C4CC4)CC3)cc12 [Example 11-6, (R)-3-(1-((7-(4-(cyclopropanecarbonyl)piperazin-1-yl)-4-methylpyrido[3,4-d]pyridazin-1-yl)amino)ethyl)-2-methylbenzonitrile] | 0.42 nM | 55 nM | – | –
CNCc1ccccc1-c1ccc([C@@H](C)Nc2nnc(C(F)(F)F)c3ccc(N4CCOCC4)cc23)s1 [Example 10-2, (R)—N-(1-(5-(2-((methylamino)methyl)phenyl)thiophen-2-yl)ethyl)-7-morpholino-4-(trifluoromethyl)phthalazin-1-amine] | 14.9 nM | 1370 nM | – | –
Cc1c([C@@H](C)Nc2nnc(C)c3ccc(N4CCC(N(C)C)C4)cc23)cccc1C(F)(F)F (stereo in doubt) [Example 10-27, 7-((R)-3-(dimethylamino)pyrrolidin-1-yl)-4-methyl-N-((R)-1-(2-methyl-3-(trifluoromethyl)phenyl)ethyl)phthalazin-1-amine hydrochloride salt] | – | – | 0.46 nM | 154 nM
Cc1c([C@@H](C)Nc2nnc(C)c3ccc(N4CCC5(CCN(C)C5)CC4)cc23)cccc1C(F)(F)F [Example 10-37, (R)-4-methyl-N-(1-(2-methyl-3-(trifluoromethyl)phenyl)ethyl)-7-(2-methyl-2,8-diazaspiro[4.5]decan-8-yl)phthalazin-1-amine hydrochloride salt] | – | – | 0.24 nM | 55 nM
Cc1c([C@@H](C)Nc2nnc(C)c3ccc(N4C5CCC4CN(C)C5)cc23)cccc1C(F)(F)F [Example 10-28, 4-methyl-N-((R)-1-(2-methyl-3-(trifluoromethyl)phenyl)ethyl)-7-(3-methyl-3,8-diazabicyclo[3.2.1]octan-8-yl)phthalazin-1-amine hydrochloride salt] | – | – | 0.45 nM | 161 nM
Cc1c([C@@H](C)Nc2nnc(C)c3cnc(N4CC5(COC5)C4)cc23)cccc1C(F)(F)F [Example 12-3] | 0.74 nM | 30 nM | – | –
Cc1c([C@@H](C)Nc2nncc3ccc(N4CCn5c(cnc5C)C4)cc23)cccc1C(F)(F)F [Example 1-37, (R)-N-(1-(2-methyl-3-(trifluoromethyl)phenyl)ethyl)-7-(3-methyl-5,6-dihydroimidazo[1,5-a]pyrazin-7(8H)-yl)phthalazin-1-amine] | 0.25 nM | 131 nM | – | –
Cc1c(C#N)cc(F)cc1[C@@H](C)Nc1nnc(C)c2cnc(N3CCC(C)(N(C)C)CC3)cc12 [Example 12-104] | 6.1 nM | 92 nM | – | –
Cc1c([C@@H](C)Nc2nnc(C)c3cnc(N4CCN5CCOC[C@@H]5C4)cc23)cccc1C(F)(F)F [Example 12-14] | 0.55 nM | 17 nM | – | –
COc1c(C#N)cccc1[C@@H](C)Nc1nnc(C)c2cnc(N3CC(C)(O)C3)cc12 [Example 17-3, (R)-3-(1-((7-(3-hydroxy-3-methylazetidin-1-yl)-4-methylpyrido[3,4-d]pyridazin-1-yl)amino)ethyl)-2-methoxybenzonitrile] | 12.8 nM | 188 nM | – | –
Cc1c([C@@H](C)Nc2nnc(C)c3cnc(N4CCC(C)(O)CC4)cc23)cccc1C(F)(F)F [Example 12-7] | 0.4 nM | 66 nM | – | –
Cc1c(C#N)cccc1[C@@H](C)Nc1nnc(C)c2ccc(N3CCN(c4cnn(C)c4)CC3)cc12 [Example 10-70, (R)-2-methyl-3-(1-((4-methyl-7-(4-(1-methyl-1H-pyrazol-4-yl)piperazin-1-yl)phthalazin-1-yl)amino)ethyl)benzonitrile] | 0.89 nM | 15 nM | – | –
CNCc1ccccc1-c1ccc([C@@H](C)Nc2nnc(C)c3cnc(N4CCOCC4)cc23)s1 [Example 6-2, (R)-4-methyl-N-(1-(5-(2-((methylamino)methyl)phenyl)thiophen-2-yl)ethyl)-7-morpholinopyrido[3,4-d]pyridazin-1-amine] | 1.35 nM | 100 nM | – | –
Cc1c([C@@H](C)Nc2nnc(C)c3ccc(N4CCOCC4)cc23)cc(F)cc1C(F)(F)F [Example 21-8, (R)—N-(1-(5-fluoro-2-methyl-3-(trifluoromethyl)phenyl)ethyl)-4-methyl-7-morpholinophthalazin-1-amine] | 3.17 nM | 90 nM | – | –
Cc1c(C#N)cccc1[C@@H](C)Nc1nnc(C)c2ccc(N3CC4(CCN(C)C4)C3)cc12 [Example 10-73, (R)-2-methyl-3-(1-((4-methyl-7-(6-methyl-2,6-diazaspiro[3.4]octan-2-yl)phthalazin-1-yl)amino)ethyl)benzonitrile formate salt] | – | – | 0.63 nM | 49 nM
Cc1c(C#N)cccc1[C@@H](C)Nc1nnc(C)c2ccc(N3CCNCC3)cc12 [Example 10-55, (R)-2-methyl-3-(1-((4-methyl-7-(piperazin-1-yl)phthalazin-1-yl)amino)ethyl)benzonitrile Formate salt] | – | – | 0.76 nM | 76 nM

Reference: US11702418B2, “SOS1 inhibitors” (priority 2019, dated 2023)
